Test results reported in ChEMBL document CHEMBL5321208, “The effect of side chain variations on quinazoline-pyrimidine G-quadruplex DNA ligands” (Eur J Med Chem, 2023).
Each block holds one molecule with its values, some of them ahead of it. Active and inactive are the calls of the source. The calls are words filed in the database; no cut-off is given here.

Legend:
dsDNA = assay: Binding affinity to double stranded DNA (unknown origin) assessed as thermal stabilization at 1 to 8 uM measured at 10 to 95 degreeC by FRET analysis; assay type: nucleic-acid assay; conditions: dose 1-8 µM
Quadruplex DNA [1] = assay: Binding affinity to FAM/TAMRA-labelled parallel c-MYC Pu24T G4 DNA (unknown origin) assessed as thermal stabilization at 1 to 8 uM measured at 10 to 95 degreeC by FRET analysis; assay type: nucleic-acid assay; conditions: dose 1-8 µM
Quadruplex DNA [2] = assay: Binding affinity to FAM/TAMRA-labelled parallel KRAS G4 DNA (unknown origin) assessed as thermal stabilization at 1 to 8 uM measured at 10 to 95 degreeC by FRET analysis; assay type: nucleic-acid assay; conditions: dose 1-8 µM
Quadruplex DNA [3] = assay: Binding affinity to FAM/TAMRA-labelled c-KIT1 G4 DNA (unknown origin) assessed as thermal stabilization at 1 to 8 uM measured at 10 to 95 degreeC by FRET analysis; assay type: nucleic-acid assay; conditions: dose 1-8 µM
Quadruplex DNA [4] = assay: Binding affinity to FAM/TAMRA-labelled c-KIT2 G4 DNA (unknown origin) assessed as thermal stabilization at 1 to 8 uM measured at 10 to 95 degreeC by FRET analysis; assay type: nucleic-acid assay; conditions: dose 1-8 µM
Quadruplex DNA [5] = assay: Binding affinity to FAM/TAMRA-labelled 21g G4 DNA (unknown origin) assessed as thermal stabilization at 1 to 8 uM measured at 10 to 95 degreeC by FRET analysis; assay type: nucleic-acid assay; conditions: dose 1-8 µM
Quadruplex DNA [6] = assay: Binding affinity to FAM/TAMRA-labelled parallel 25ceb G4 DNA (unknown origin) assessed as thermal stabilization at 1 to 8 uM measured at 10 to 95 degreeC by FRET analysis; assay type: nucleic-acid assay; conditions: dose 1-8 µM
Quadruplex DNA [7] = assay: Binding affinity to FAM/TAMRA-labelled c-MYC Pu22 G4 DNA (unknown origin) assessed as thermal stabilization at 1 to 8 uM measured at 10 to 95 degreeC by FRET analysis; assay type: nucleic-acid assay; conditions: dose 1-8 µM
Quadruplex DNA [8] = assay: Binding affinity to FAM/TAMRA-labelled parallel c-MYC Pu24T G4 DNA (unknown origin) assessed as thermal stabilization in the presence of 15 equivalents of double stranded DNA by FRET competition assay; assay type: nucleic-acid assay
Quadruplex DNA [9] = assay: Binding affinity to parallel c-MYC Pu24T G4 DNA (unknown origin) assessed as change in topology at 5 uM by CD spectra analysis; assay type: nucleic-acid assay
Quadruplex DNA [10] = assay: Binding affinity to FAM/TAMRA-labelled parallel c-MYC Pu24T G4 DNA (unknown origin) assessed as thermal stabilization by measuring change in melting temperature at 2 uM in the presence of 100 equivalents of double stranded DNA by FRET competition assay; assay type: nucleic-acid assay
Quadruplex DNA [11] = assay: Binding affinity to FAM/TAMRA-labelled antiparallel TBA G4 DNA (unknown origin) assessed as thermal stabilization at 1 to 8 uM measured at 10 to 95 degreeC by FRET analysis; assay type: nucleic-acid assay; conditions: dose 1-8 µM
Quadruplex DNA [12] = assay: Binding affinity to FAM/TAMRA-labelled parallel KRAS G4 DNA (unknown origin) assessed as thermal stabilization in the presence of 15 equivalents of double stranded DNA by FRET competition assay; assay type: nucleic-acid assay
Quadruplex DNA [13] = assay: Binding affinity to FAM/TAMRA-labelled parallel KRAS G4 DNA (unknown origin) assessed as thermal stabilization by measuring change in melting temperature at 2 uM in the presence of 100 equivalents of double stranded DNA by FRET competition assay; assay type: nucleic-acid assay
[14] = Cytotoxicity against wildtype C57BL/6J mouse cancer activated fibroblast cells assessed as inhibition of cell growth incubated for 5 days by resazurin dye based fluorescence microscopic analysis; assay type: toxicity
[15] = Antitumor activity against KPC mouse pancreatic cancer organoid expressing lentiviral modified GFP co-cultured with WT C57BL/6J mouse pancreatic stellate cells expressing mKate2 assessed as inhibition of cell growth incubated for 5 days by resazurin dye based fluorescence microscopic analysis; assay type: functional, tissue-based; conditions: 120 h
Quadruplex DNA [16] = assay: Binding affinity to 5'-Cy5-labelled parallel c-MYC Pu24T G4 DNA (unknown origin) assessed as dissociation constant by MST analysis; assay type: nucleic-acid assay
Quadruplex DNA [17] = assay: Binding affinity to parallel c-MYC Pu24T G4 DNA (unknown origin) assessed as thermal stabilization by measuring change in melting temperature at 5 uM measured at 1:1 DNA to ligand ratio by CD spectra analysis; assay type: nucleic-acid assay
Quadruplex DNA [18] = assay: Binding affinity to FAM/TAMRA-labelled antiparallel Bom17 G4 DNA (unknown origin) assessed as thermal stabilization at 1 to 8 uM measured at 10 to 95 degreeC by FRET analysis; assay type: nucleic-acid assay; conditions: dose 1-8 µM

Activity (dsDNA): inactive | Activity (Quadruplex DNA [1]): Active
Compound: Cc1cc(N2CCN(C)CC2)nc(Nc2nc(C)c3ccc4c(c3n2)CCCC4)n1

Activity (Quadruplex DNA [2]): inactive | Activity (dsDNA): inactive | Activity (Quadruplex DNA [1]): inactive
Compound: Cc1cc(N2CCN(c3ncccn3)CC2)nc(Nc2nc(C)c3ccc4c(c3n2)CCCC4)n1

Activity (dsDNA): inactive
Compound: CCN(CC)c1cc(C)nc(Nc2nc(C)c3ccc4c(c3n2)CCC4)n1

Compound: CCN(CC)CCCNc1cc(C)nc(Nc2nc(C)c3ccc4c(c3n2)CCC4)n1
Activity (Quadruplex DNA [3]): Active | Activity (Quadruplex DNA [4]): Active | Activity (Quadruplex DNA [5]): Active | Activity (Quadruplex DNA [6]): inactive | Activity (Quadruplex DNA [7]): Active | Activity (Quadruplex DNA [8]): Active | Activity (Quadruplex DNA [9]): inactive | ΔTm (Quadruplex DNA [10]): 7 °C | Activity (Quadruplex DNA [11]): inactive | Activity (dsDNA): inactive | Activity (Quadruplex DNA [12]): Active | ΔTm (Quadruplex DNA [13]): 10 °C | IC50 at 5 days [14]: 2820 nM | IC50 [15]: 193 nM | Kd (Quadruplex DNA [16]): 360 nM | ΔTm (Quadruplex DNA [17]): 5 °C | Activity (Quadruplex DNA [1]): Active | Activity (Quadruplex DNA [18]): inactive

Activity (Quadruplex DNA [1]): Active
Compound: CCN(CC)CCCCCNc1cc(C)nc(Nc2nc(C)c3ccc4c(c3n2)CCCC4)n1

Activity (Quadruplex DNA [2]): Active | Activity (dsDNA): inactive | Activity (Quadruplex DNA [1]): Active
Compound: Cc1cc(N2CCNCC2)nc(Nc2nc(C)c3ccc4c(c3n2)CCCC4)n1

Activity (Quadruplex DNA [2]): inactive | Activity (dsDNA): inactive | Activity (Quadruplex DNA [1]): inactive
Compound: Cc1cc(N2CCN(C(=O)OC(C)(C)C)CC2)nc(Nc2nc(C)c3ccc4c(c3n2)CCCC4)n1

Activity (dsDNA): inactive
Compound: Cc1cc(N2CCOCC2)nc(Nc2nc(C)c3ccc4c(c3n2)CCC4)n1

Activity (dsDNA): inactive | Activity (Quadruplex DNA [1]): Active
Compound: Cc1cc(N(C)C)nc(Nc2nc(C)c3ccc4c(c3n2)CCCC4)n1

Activity (Quadruplex DNA [2]): Active | Activity (dsDNA): inactive | Activity (Quadruplex DNA [1]): Active
Compound: Cc1cc(N2CCNCC2)nc(Nc2nc(C)c3ccc4c(c3n2)CCC4)n1

Compound: Cc1cc(NCCCN2CCCC2)nc(Nc2nc(C)c3ccc4c(c3n2)CCC4)n1
Activity (Quadruplex DNA [3]): Active | Activity (Quadruplex DNA [4]): Active | Activity (Quadruplex DNA [5]): Active | Activity (Quadruplex DNA [6]): inactive | Activity (Quadruplex DNA [7]): Active | Activity (Quadruplex DNA [8]): Active | Activity (Quadruplex DNA [9]): inactive | ΔTm (Quadruplex DNA [10]): 7 °C | Activity (Quadruplex DNA [11]): inactive | Activity (dsDNA): inactive | Activity (Quadruplex DNA [12]): Active | ΔTm (Quadruplex DNA [13]): 10 °C | IC50 at 5 days [14]: 2520 nM | IC50 [15]: 161 nM | Kd (Quadruplex DNA [16]): 275 nM | ΔTm (Quadruplex DNA [17]): 5 °C | Activity (Quadruplex DNA [1]): Active | Activity (Quadruplex DNA [18]): inactive

Activity (dsDNA): inactive | Activity (Quadruplex DNA [1]): Active
Compound: Cc1cc(NCCN2CCNCC2)nc(Nc2nc(C)c3ccc4c(c3n2)CCCC4)n1

Compound: Cc1cc(NCCCN2CCCCC2)nc(Nc2nc(C)c3ccc4c(c3n2)CCC4)n1
Activity (Quadruplex DNA [3]): Active | Activity (Quadruplex DNA [4]): Active | Activity (Quadruplex DNA [5]): Active | Activity (Quadruplex DNA [6]): inactive | Activity (Quadruplex DNA [7]): Active | Activity (Quadruplex DNA [8]): Active | Activity (Quadruplex DNA [9]): inactive | ΔTm (Quadruplex DNA [10]): 7 °C | Activity (Quadruplex DNA [11]): inactive | Activity (dsDNA): inactive | Activity (Quadruplex DNA [12]): Active | ΔTm (Quadruplex DNA [13]): 10 °C | IC50 at 5 days [14]: > 500 nM | IC50 [15]: 793 nM | Kd (Quadruplex DNA [16]): 285 nM | ΔTm (Quadruplex DNA [17]): 4 °C | Activity (Quadruplex DNA [1]): Active | Activity (Quadruplex DNA [18]): inactive

Activity (Quadruplex DNA [2]): inactive | Activity (dsDNA): inactive | Activity (Quadruplex DNA [1]): inactive
Compound: Cc1cc(N2CCN(c3ncccn3)CC2)nc(Nc2nc(C)c3ccc4c(c3n2)CCC4)n1

Activity (Quadruplex DNA [2]): inactive | Activity (dsDNA): inactive | Activity (Quadruplex DNA [1]): inactive
Compound: CCOC(=O)CCN1CCN(c2cc(C)nc(Nc3nc(C)c4ccc5c(c4n3)CCC5)n2)CC1
